Entries after “also recorded” stand apart in the source; their conditions may differ.
How the values were obtained:
NIH3T3 = assay: Cytoskeleton analysis, actin staining; type: cell-based, mouse; set-up: key to Cell architecture modification, actin staining NIH3T3, ruffles (R) / Cell architecture modification, actin staining NIH3T3, focal complexes (FC): a decrease in cellular ruffles density was noted R−; an increase in focal complexes density was noted FC+
Experimental: (§1) Since major rearrangements of cytoskeleton are observed in tumor cells and since the small GTPases are known to regulate these events, analysis of actin cytoskeleton was performed. Subconfluent cells seeded onto coverslips were treated with different concentration of compound (1, 10, 17.5, 25 and 50 μM) or vehicle for 24 h, before being fixed in 4% formaldehyde for 15 min., permeabilized in 0.2% Triton X100 for 5 minutes and incubated in PowerBlock (Biogenex) for 10 min. Actin filaments were stained with 0.5 μg/ml fluorescein isothiocyanate (FITC)-labelled phalloidin for 1 hour. Analysis was performed using an inverted fluorescent microscope.

[1] = test system: NIH3T3 cells transfected with RasV12; assay: Colony formation assay in the presence of constitutively activated Ras (RasV12); type: cell-based, mouse; set-up: key to Colony formation: −: no effect of the compound was observed; +: an effect of the compound was observed; details: NIH3T3, neoR colonies
Experimental: c) Ras/Rac-dependant Signaling Pathway Analysis
The impact of the compounds on Ras and Rac signaling pathways was analysed with two reporter systems described by Imler (Nature 1988) and Lin (Science, 1995) respectively on one hand, and by a colony formation assay in the presence of constitutively activated Ras (RasV12) and Rac (RacV12) on the other hand. For this latter experiment, fifty percent confluent NIH3T3 cells in a 10 cm diameter petri dish were transfected with 0.5 μg pSV2-RasV12 or 0.5 μg pEXV RacV12 plasmids plus 100 ng of pSV2-neomycin plasmid using Lipofectamine-Plus reagent (Invitrogen) according to the manufacturer's instructions. Forty-eight hours later, cells were trypsinised, splitted to 1/3, and incubated in the presence of complete medium supplemented with 400 μg/ml geneticin (Invitrogen) and different doses of compound (1, 10, 17.5, 25 and 50 μM) until emerging resistant clones appear (2-3 weeks). The medium was renewed every 3 days. Colonies with a minimum of 50 cells were counted after staining with Fuschin 2%.

MDA231 = assay: Cytoskeleton analysis, actin staining; type: cell-based, human
Experimental: as §1

MDA-MB-231 cells = assay: Matrigel invasion assay (Boyden chamber); type: cell-based, human; details: for Invasion: MDA-MB-231, Boyden chamber, matrigel
Experimental: d) Migration and Matrigel Invasion Assay
Chemoinvasion assay was performed in Boyden chamber as described by Albini et al (Cancer Res, 1987) with some modifications. Polycarbonate membranes with 8μm pores were coated with matrigel (125 μg/cm^2) at room temperature for 48 h. Two hours before experiments, the matrix was […] with serum-free medium containing 0.1% BSA.
One day after seeding, 10^6 MDA-MB-231 cells were treated overnight with different concentrations of compounds (1, 10, 17.5, 25 and 50 μM). Cells were collected with Versene (Invitrogen), counted with trypan blue exclusion, rinsed twice in serum-free medium containing 0.1% BSA and resuspended in serum-free medium containing 0.1% BSA plus the appropriate concentration of compound. 10^5 treated cells were placed in the upper chamber. Medium containing 10% of FBS plus the appropriate concentration of compound was placed in the lower chamber as a chemoattractant. The Boyden chamber was incubated 6 hours at 37° C. before the cells were fixed and stained with Diff-Quick (Dade-Berhing). Cells on the upper part of the filters were removed using a cotton swab. Cells on the underside of the filters were visualised and counted under light microscope. The migration assay was performed the same way, using non-coated filters.

MMP-9 = assay: Gelatin zymography; type: cell-based, human; details: zymogram gel, MDA-MB-231 supernatant
Experimental: (§2) The activity of the metalloproteases MMP-2 and MMP-9 was assayed using gelatinolytic zymography according to Lambert (Surgery 1997). Briefly, MDA-MB-231 cells were incubated overnight in serum-free medium supplemented with ITS liquid supplement (Sigma) with different concentrations of compound (1, 10, 17.5, 25 and 50 μM). Supematant was collected and concentrated with Ultrafree 30 kDA (Millipore). Equal amount of proteins, as determined by Bradford measurement, were loaded onto a 10% w/v polyacrylamide gel containing 1% gelatin and 0.1% SDS (Novex). After electrophoresis, gels were washed in Novex Zymogram Renaturing buffer for 30 min at room temperature and incubated overnight at 37° C. in Novex Zymogram developing buffer. Gels were stained in Coomassie Brilliant Blue G-250, and the gelatinolytic activity was visualized as a clear band against the blue background of the stained gelatin.

MMP-2 = assay: Gelatin zymography; type: cell-based, human; details: zymogram gel, MDA-MB-231 supernatant
Experimental: as §2

## CCOc1ccccc1OCCCCCOc1coc(C(=O)O)cc1=O [EH4701, 5-[5-(2-Ethyloxyphenyloxy)pentyloxy]-4-oxo-4H-pyran-2-carboxylic acid]
other
  melting point: 141 to 142 °C

## O=c1cc(CO)occ1OCCCCCOc1ccc(Cl)c(Cl)c1 [EH5500, 5-[5-(3,4-Dichlorophenyloxy)pentyloxy]-2-(hydroxymethyl)-4H-pyran-4-one]
NIH3T3
  Cell architecture modification, actin staining NIH3T3, general observation: affected the general morphology; also recorded: cell destructuration
[1]
  Colony formation: −
other
  melting point: 97 to 99 °C

## O=C(O)c1cc(=O)c(OCCCCCOc2ccc(Cl)c(Cl)c2)co1 [EH6600, 5-[5-(3,4-Dichlorophenyloxy)pentyloxy]-4-oxo-4H-pyran-2-carboxylic acid]
other
  melting point: 159 to 161 °C

## O=c1cc(COCc2ccccc2)occ1OCCCCCOc1ccc(Cl)c(Cl)c1 [EH7701, 2-(Benzyloxymethyl)-5-[5-(3,4-dichlorophenyloxy)pentyloxy]-4H-pyran-4-one]
other
  melting point: 82 to 83 °C
MDA231
  Cell architecture modification, actin staining MDA231, general observation: cell spreading
MDA-MB-231 cells
  Invasion: No significant effect

## C/C=C/c1oc(CO)cc(=O)c1OCCCCCOc1ccccc1CCC [EH9301, (E)-6-(Hydroxymethyl)-2-(propen-1-yl)-3-[5-(2-propylphenyloxy)pentyloxy]-4H-pyran-4-one]
[1]
  Colony formation: −
other
  melting point: 67 to 68 °C
MDA-MB-231 cells
  Invasion: No significant effect

## C/C=C/c1oc(C(=O)O)cc(=O)c1OCCCCCOc1ccc(Cl)c(Cl)c1 [EH10501, (E)-3-[5-(3,4-Dichlorophenyloxy)pentyloxy]-2-(propen-1-yl)-4-oxo-4H-pyran-6-carboxylic acid]
other
  melting point: 118 to 119 °C

## O=c1cc(CO)occ1OCCCCCOc1cccc(Cl)c1 [EH10600, 5-[5-(3-Chlorophenyloxy)pentyloxy]-2-(hydroxymethyl)-4H-pyran-4-one]
NIH3T3
  Cell architecture modification, actin staining NIH3T3, general observation: affected the general morphology; also recorded: cell destructuration
[1]
  Colony formation: −
other
  melting point: 87 to 88 °C

## C/C=C/c1oc(C(=O)O)cc(=O)c1OCCCCCOc1ccccc1CCC [EH15301, (E)-2-(Propen-1-yl)-3-[5-(2-propylphenyloxy)pentyloxy]-4-oxo-4H-pyran-6-carboxvlic acid]
other
  melting point: 145 to 146 °C

## O=C(O)c1cc(=O)c(OCCCCCOc2cccc(Cl)c2)co1 [EH15700, 5-[5-(3-Chlorophenyloxy)pentyloxy]-4-oxo-4H-pyran-2-carboxylic acid]
other
  melting point: 160 to 161 °C

## C/C=C/c1oc(CO)cc(=O)c1OCCCCCOc1cccc(Cl)c1 [EH16201, (E)-3-[5-(3-Chlorophenyloxy)pentyloxy]-6-(hydroxymethyl)-2-(propen-1-yl)-4H-pyran-4-one]
other
  melting point: 50 to 51 °C

## CCCc1c(OCCCCCCOc2coc(CO)cc2=O)ccc(Cl)c1Cl [EH16701, 5-[6-(3,4-Dichloro-2-propylphenyloxy)hexyloxy]-2-(hydroxymethyl)-4H-pyran-4-one]
other
  melting point: 86 to 87 °C
MDA231
  Cell architecture modification, actin staining MDA231, general observation: cell spreading
MDA-MB-231 cells
  Invasion: No significant effect

## C/C=C/c1oc(C(=O)O)cc(=O)c1OCCCCCOc1ccc(Cl)cc1 [EH17401, (E)-3-[-5-(4-Chlorophenyloxy)pentyloxy]-2-(propen-1-yl)-4-oxo-4H-pyran-6-carboxylic acid]
other
  melting point: 136 to 137 °C

## O=C(O)c1cc(=O)c(OCCCCCOc2ccc(Cl)cc2)co1 [EH17600, 5-[5-(4-Chlorophenyloxy)pentyloxy]-4-oxo-4H-pyran-2-carboxylic acid]
other
  melting point: 154 to 156 °C

## O=c1cc(CO)occ1OCCCCOc1ccc(Cl)c(Cl)c1 [EH17700, 5-[4-(3,4-Dichlorophenyloxy)butyloxy]-2-(hydroxymethyl)-4H-pyran-4-one]
[1]
  Colony formation: −
other
  melting point: 107 to 108 °C

## CCCc1c(OCCCCCCCOc2coc(CO)cc2=O)ccc(Cl)c1Cl [EH17701, 5-[7-(3,4-Dichloro-2-propylphenyloxy)heptyloxy]-2-(hydroxymethyl)-4H-pyran-4-one]
other
  melting point: 62 to 64 °C
MDA231
  Cell architecture modification, actin staining MDA231, general observation: cell spreading

## C/C=C/c1oc(C(=O)O)cc(=O)c1OCCCCCOc1cccc(Cl)c1 [EH18401, (E)-3-[5-(3-Chlorophenyloxy)pentyloxy]-2-(propen-1-yl)-4-oxo-4H-pyran-6-carboxylic acid]
other
  melting point: 116 to 117 °C

## CCOc1ccccc1OCCCCCOc1coc(CO)cc1=O [EH18601, 5-[5-(2-Ethyloxyphenyloxy)pentyloxy]-2-(hydroxymethyl)-4H-pyran-4-one]
other
  melting point: 75 to 76 °C
MDA-MB-231 cells
  Invasion: No significant effect

## O=C(O)c1cc(=O)c(OCCCCOc2ccc(Cl)c(Cl)c2)co1 [EH20700, 5-[4-(3,4-Dichlorophenyloxy)butyloxy]-4-oxo-4H-pyran-2-carboxylic acid]
other
  melting point: 182 to 183 °C

## C/C=C/c1oc(C(=O)O)cc(=O)c1OCCCCCOc1ccc(Cl)c(Cl)c1CCC [EH22501, (E)-3-[5-(3,4-Dichloro-2-propylphenyloxy)pentyloxy]-2-(propen-1-yl)-4-oxo-4H-pyran-6-carboxylic acid]
other
  melting point: 161 to 162 °C

## C/C=C/c1oc(CO)cc(=O)c1OCCCCCOc1ccc(Cl)cc1 [EH26101, (E)-3-[5-(4-Chlorophenyloxy)pentyloxy]-6-(hydroxymethyl)-2(propen-1-yl)-4H-pyran-4-one]
other
  melting point: 84 to 85 °C

## CCCc1ccccc1OCCCCCOc1coc(C(=O)O)cc1=O [EH26900, 5-[5-(2-Propylphenyloxy)pentyloxy]-4-oxo-4H-pyran-2-carboxylic acid]
other
  melting point: 145 to 146 °C

## CCCc1c(OCCCCCOc2coc(C(=O)O)cc2=O)ccc(Cl)c1Cl [EH27900, 5-[5-(3,4-Dichloro-2-propylphenyloxy)pentyloxy]-4-oxo-4H-pyran-2-carboxylic acid]
other
  melting point: 155 to 156 °C

## O=C(NCc1ccccc1)c1cc(=O)c(OCCCCCOc2ccc(Cl)cc2)co1 [EH28900, N-Benzyl-5-[5-(4-Chlorophenyloxy)pentyloxy]-4-oxo-4H-pyran-2-carboxamide]
other
  melting point: 125 to 126 °C

## C/C=C/c1oc(CO)cc(=O)c1OCCCCCOc1ccc(Cl)c(Cl)c1 [EH30101]
other
  melting point: 100 to 101 °C

## CCCc1cc(Cl)c(Cl)cc1OCCCCCOc1coc(CO)cc1=O [EH30701, 5-[5-(4,5-Dichloro-2-propylphenyloxy)pentyloxy]-2-(hydroxymethyl)-4H-pyran-4-one]
other
  melting point: 83 to 84 °C
MDA231
  Cell architecture modification, actin staining MDA231, general observation: cell spreading

## C/C=C/c1oc(CO)cc(=O)c1OCCCCCOc1ccc(Cl)c(Cl)c1CCC [EH31101, (E)-3-[5-(3,4-Dichloro-2-propylphenyoxy)pentyloxy]-6-(hydroxymethyl)-2-(propen-1-yl)-4H-pyran-4-one]
NIH3T3
  Cell architecture modification, actin staining NIH3T3, focal complexes (FC): FC+
  Cell architecture modification, actin staining NIH3T3, ruffles (R): R−
[1]
  Colony formation: −
other
  melting point: 75 to 76 °C
MMP-9
  concentration of dose-dependant inhibition of MMP-9: 0.1 µM
MMP-2
  concentration of dose-dependant inhibition of MMP-2: 0.1 µM
MDA-MB-231 cells; MDA-MB-231 cells
  concentration at which an increase in invasive properties was noted: 10 µM

— US6552073B1, “Compounds and methods of treating cell proliferative diseases” (Exonhit Therapeutics SA, priority 2002, dated 2003)
